Results from US20250296938A1, “Compounds that Interact with the Ras Superfamily for the Treatment of Cancers, Inflammatory Diseases, Rasopathies, and Fibrotic Disease” (SHY Therapeutics, LLC, priority 2018, published 2025).
Read-outs that look alike come from different tables or passages of the source.

Experiments:
Assay in all cases: Ras GTP binding domain inhibition assay (Cy3-GTP/Cy5-GTP competition)
KRas G12D mutant = molecular target: T1, KRas G12D mutant (Homo sapiens, UniProt P01116, G12D); details: at 20 μM
T1 construct: fused on or other part: His tag, used for capture on nickel-coated plates
Procedure, shortened: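 Ni-plate immobilised His-Ras, overnight 4 °C; cpd 20 μM (or dilution series for IC50), 1% DMSO, 3 h RT; optional His-Sos […] last hour; Cy3- or Cy5-GTP 100 nM, 45 min RT; 3× wash; bound fluorescence read.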

Rac-1 = Rac-1 (Homo sapiens, UniProt P63000)
Procedure, shortened: (§1)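 First, His-tagged protein is coated on nickel wells overnight at 4 °C. Next, compound (20 μM single point or serial dilution) is added for 3 h at room temperature, with or without Sos exchange factor in the last hour. Finally, 100 nM labelled GTP binds for 45 min and retained signal is measured.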

Rho-A = Rho-A (Homo sapiens, UniProt P61586)
Procedure, shortened: as §1

[1] = with SOS, read-out: KRas G12D mutant + SOS: % inh.
[2] = without SOS, read-out: KRas G12D mutant: % inh.
[3] = with SOS, read-out: Rac-1 + SOS: % inh.
[4] = without SOS, read-out: Rac-1: % inh.
[5] = with SOS, read-out: Rho-A + SOS: % inh.
[6] = without SOS, read-out: Rho-A: % inh.

Row | Compound | inhibition at 20 µM (KRas G12D mutant; [1]) [%] | inhibition at 20 µM (KRas G12D mutant; [2]) [%] | inhibition at 20 µM (Rac-1; [3]) [%] | inhibition at 20 µM (Rac-1; [4]) [%] | inhibition at 20 µM (Rho-A; [5]) [%] | inhibition at 20 µM (Rho-A; [6]) [%]
1 | CO[C@@H]1CCC(Nc2nc(-c3nccn3C)nc3sc(-c4ccn(C)n4)c(-c4ccccc4)c23)C1 (stereo partly drawn) [drawing 994] | 26 to 50 | 26 to 50 | 26 to 50 | 26 to 50 | 76 to 100 | 0
2 | CO[C@H]1CCC(Nc2nc(-c3nccn3C)nc3sc(-c4ccn(C)n4)c(-c4ccccc4)c23)C1 (stereo partly drawn) [drawing 995] | 51 to 75 | 1 to 25 | 51 to 75 | 51 to 75 | 76 to 100 | 51 to 75
3 | Cn1ccc(-c2sc3nc(-c4nccn4C)nc(NCC4CCOC4)c3c2-c2ccccc2)n1 (stereo not drawn) [drawing 996] | 1 to 25 | 26 to 50 | 26 to 50 | 1 to 25 | 0 | 26 to 50
4 | Cn1ccc(-c2sc3nc(-c4nccn4C)nc(NC4CCOCC4)c3c2-c2ccccc2)n1 [drawing 997] | 1 to 25 | 1 to 25 | 26 to 50 | 26 to 50 | 51 to 75 | 0
5 | COC1CCN(c2nc(-c3nccn3C)nc3sc(-c4ccn(C)n4)c(-c4ccccc4)c23)C1 (stereo not drawn) [drawing 998] | 1 to 25 | 1 to 25 | 26 to 50 | 26 to 50 | 1 to 25 | 0
6 | COCC(C)Nc1nc(-c2nccn2C)nc2sc(-c3ccn(C)n3)c(-c3ccccc3)c12 (stereo not drawn) [drawing 999] | 26 to 50 | 1 to 25 | 1 to 25 | 1 to 25 | 26 to 50 | 0
7 | COCCCN(C)c1nc(-c2nccn2C)nc2sc(-c3ccn(C)n3)c(-c3ccccc3)c12 [drawing 1000] | 26 to 50 | 51 to 75 | 26 to 50 | 26 to 50 | 0 | 1 to 25
8 | COCCCNc1nc(-c2nccn2C)nc2sc(-c3ccn(C)n3)c(-c3ccccc3)c12 [drawing 1001] | 26 to 50 | 1 to 25 | 26 to 50 | 1 to 25 | 0 | 0
9 | COc1cccc(-c2sc3nc(-c4nccn4C)nc(N4CCC(OC)C4)c3c2-c2cscn2)c1 (stereo not drawn) [drawing 1002] | 51 to 75 | 1 to 25 | 1 to 25 | 0 | 1 to 25 | 0
10 | COc1ccc(-c2c(-c3ccn(C)n3)sc3nc(-c4nccn4C)nc(N4CCC(OC)C4)c23)cc1 (stereo not drawn) [drawing 1003] | 1 to 25 | 0 | 0 | 0 | 26 to 50 | 0
11 | COCC(C)Nc1nc(-c2nccn2C)nc2sc(-c3ccn(C)n3)c(-c3ccc(OC)cc3)c12 (stereo not drawn) [drawing 1004] | 1 to 25 | 0 | 0 | 0 | 1 to 25 | 1 to 25
12 | COCCCNc1nc(-c2nccn2C)nc2sc(-c3ccn(C)n3)c(-c3ccc(OC)cc3)c12 [drawing 1005] | 1 to 25 | 0 | 0 | 0 | 51 to 75 | 1 to 25
13 | COCCNc1nc(-c2nccn2C)nc2sc(-c3cc(OC)ccc3Cl)c(-c3ccccc3)c12 [drawing 1006] | 1 to 25 | 26 to 50 | 26 to 50 | 1 to 25 | 51 to 75 | 1 to 25
14 | COCCNc1nc(-c2nccn2C)nc2sc(-c3cccc(OC)c3Cl)c(-c3ccccc3)c12 [drawing 1007] | 76 to 100 | 1 to 25 | 26 to 50 | 51 to 75 | 51 to 75 | 51 to 75
15 | COCCNc1nc(-c2cn(C)cn2)nc2sc(-c3ccccc3Cl)c(-c3ccc(OC)cc3)c12 [drawing 1008] | 76 to 100 | 26 to 50 | 26 to 50 | 26 to 50 | 0 | 0
16 | COCCNc1nc(-c2nccn2C)nc2sc(-c3cccc(OC)c3Cl)c(-c3ccc(OC)cc3)c12 [drawing 1009] | 51 to 75 | 1 to 25 | 51 to 75 | 26 to 50 | 26 to 50 | 26 to 50
17 | COCCNc1nc(-c2nccn2C)nc2sc(-c3cccc(OC)c3)c(-c3ccc(OC)cc3)c12 [drawing 1010] | 76 to 100 | 51 to 75 | 26 to 50 | 1 to 25 | 0 | 0
18 | COCCNc1nc(-c2nccn2C)nc2sc(-c3ccccc3Cl)c(-c3ccc(OC)cc3)c12 [drawing 1011] | 76 to 100 | 26 to 50 | 26 to 50 | 1 to 25 | 0 | 0
19 | COCCNc1nc(-c2nccn2C)nc2sc(-c3cc(OC)ccc3Cl)c(-c3ccc(OC)cc3)c12 [drawing 1012] | 26 to 50 | 1 to 25 | 1 to 25 | 1 to 25 | 1 to 25 | 26 to 50
20 | COc1cccc(-c2csc3c(O)nc(-c4nccn4C)nc23)c1Cl [drawing 1013] | 1 to 25 | 1 to 25 | 26 to 50 | 1 to 25 | 1 to 25 | 1 to 25
21 | COc1c(O)nc(-c2ccccn2)nc1Oc1ccc(C(=O)N(C)C)cc1 [drawing 1014] | 26 to 50 | 51 to 75 | 51 to 75 | 51 to 75 | 51 to 75 | 51 to 75
22 | COc1c(O)nc(-c2ccccn2)nc1Nc1ccccc1 [drawing 1015] | 26 to 50 | 26 to 50 | 51 to 75 | 51 to 75 | 51 to 75 | 51 to 75
23 | CCn1cc(Nc2nc(-c3ccccn3)nc(O)c2OC)cn1 [drawing 1016] | 26 to 50 | 26 to 50 | 76 to 100 | 51 to 75 | 51 to 75 | 51 to 75
24 | CCOc1cccc(Nc2nc(-c3ccccn3)nc(O)c2OC)c1 [drawing 1017] | 26 to 50 | 51 to 75 | 76 to 100 | 76 to 100 | 51 to 75 | 51 to 75
25 | COc1c(F)cccc1-c1sc2nc(-c3nccn3C)nc(NC3CCC(OC)C3)c2c1-c1ccccc1 (stereo not drawn) [drawing 1021] | 1 to 25 | 1 to 25 | 51 to 75 | 26 to 50 | 26 to 50 | 26 to 50
